We go through two compounds from article PMC11811631 (RSC Chemical Biology, 2025).

For the assay, the target named is ScoE (Streptomyces coeruleorubidus, UniProt A0A3B6UEU3). Nature of the assay: LC-MS of pyrazole product […] after tetrazine derivatization. The class given is biochemical.

With `CCCC(CC(=O)O)NCC(=O)O` (centres unmarked) [6 (n = 3), 6 with a propyl group], the “LC-MS of pyrazole product 8 after tetrazine derivatization” value (accepted chain length) is “substrates that have a short alkyl chain, e.g., a methyl and propyl group”. In the case of `CC(CC(=O)O)NCC(=O)O` (centres unmarked) [6 (n = 1), methyl-6], the “LC-MS of pyrazole product 8 after tetrazine derivatization” value (preferred chain length) was “substrates that have a short alkyl chain, e.g., a methyl and propyl group”.
